Assay results published in paper PMC7880554 (ACS chemical biology, 2016).

Molecular target: Culp1 (Rv1984c) (Mycobacterium tuberculosis, UniProt P9WP43)
Settings: band identified by mass spectrometry; transposon mutant control

Chain of Culp1 (Rv1984c) (P9WP43 33-217): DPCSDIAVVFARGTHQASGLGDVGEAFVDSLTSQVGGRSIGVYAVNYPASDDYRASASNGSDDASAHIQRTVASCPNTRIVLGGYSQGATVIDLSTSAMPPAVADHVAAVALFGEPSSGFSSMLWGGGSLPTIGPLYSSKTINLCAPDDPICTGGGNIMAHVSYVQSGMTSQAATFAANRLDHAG

SMILES: CCCCCCCC(=O)OCOc1ccc2c(c1)C(C)(C)C1=C(Cl)C(=O)C(Cl)=CC1=N2 [DDAO-7-OME]
- in-gel fluorogenic activity, native PAGE-resolved lysate: DDAO-7-OME provided the clearest Mtb banding patterns in these complex lysates and revealed Culp1 activity
